In patent publication US6395526B1, “DNA polymerase” (Takara Shuzo Co., Ltd., priority 1995, dated 2002):
“Also recorded” adds a separate entry of the source.

Legend:
Type in all cases: biochemical
M13-HT Primer = assay: Primer extension reaction (autoradiogram, FIG. 6); settings: for inhibition of primer extension by activated DNA as competitor substrate: activated DNA added in great excess
Description: The primer extension activity was further investigated extensively. The M13-HT Primer, previously labeled with [γ-^32P]-ATP (manufactured by Amersham) and T4 polynucleotide kinase (manufactured by Takara Shuzo Co., Ltd.) at the 5′-end, was used as a substrate. Ten microliters of a reaction mixture [20 mM Tris-HCl (pH 7.7), 15 mM MgCl2, 2 mM 2-mercaptoethanol, 270 μM each of dATP, dGTP, dCTP and dTTP] containing the above substrate in a final concentration of […] and various DNA polymerases in amounts providing 0.05 units of activity as assayed with the activated DNA as a substrate was reacted at 75° C. for 1, 2, 3, or 4 minutes. After termination of the reaction, 2 μl of a reaction stop solution (95% […], 20 mM EDTA, 0.05% bromophenol blue, 0.05% xylenecyanol) was added, subjected to thermal denaturation treatment at 95° C. for 3 minutes. Two microliters of the reaction mixture was then subjected to electrophoresis using polyacrylamide gel containing 8 M urea and subsequently subjected to a preparation of autoradiogram. Also, in order to examine the extension activity in the presence of the activated DNA as a competitor substrate, the activated DNA was added to the above reaction mixture to a final concentration of […], and subjected to a preparation of an autoradiogram by the same procedures as described above.
In the figure, Pol, Pfu, and Taq show the results for the DNA polymerase of the present invention, the Pfu DNA polymerase and the Taq DNA polymerase, respectively. In addition, 1, 2, 3, and 4 each indicates reaction time (min). In the figure, the representation “−” and “+” show the results obtained in the absence and in the presence, respectively, of the activated DNA. The lanes G, A, T, and C at the left end of the figure also show the results of electrophoresis of the reaction products obtained by a chain termination reaction by the dideoxy method using the same substrate as above, which were used to estimate the length of each extension product.

λ-DNA = assay: PCR with λ-DNA as a template
Description: In order to compare the performance of the DNA polymerase of the present invention in PCR with that of the Taq DNA polymerase, PCR was carried out with λ-DNA as a template. The reaction mixture for the DNA polymerase of the present invention had the following composition: 10 mM Tris-HCl (pH 9.2), 3.5 mM MgCl2, 75 mM KCl, 400 μM each of dATP, dCTP, dGTP and dTTP, 0.01% bovine serum albumin (BSA), and 0.1% Triton X-100. The reaction solution for the Taq DNA polymerase had the following composition: 10 mM Tris-HCl (pH 8.3), 1.5 mM MgCl2, 50 mM KCl, and 400 μM each of dATP, dCTP, dGTP and dTTP. Fifty microliters of a reaction mixture containing 5.0 ng/50 μl λ-DNA (manufactured by Takara Shuzo Co., Ltd.), 10 pmol/50 μl each of primer λ1 and primer λ11, and 3.7 units/50 μl DNA polymerase was prepared. The base sequences of the primer λ1 and the primer λ11 are shown by SEQ ID NO:8 and SEQ ID NO:9 in Sequence Listing, respectively. After, a 30-cycle PCR was carried out with the above reaction mixture, wherein one cycle is defined at 98° C. for 10 seconds and at 68° C. for 10 seconds. Five microliters of the reaction mixture was subjected to agarose gel electrophoresis, and the amplified DNA fragment was confirmed by staining with ethidium bromide.
The experiment was then carried out by changing the primer to the primer λ1 and the primer λ10. The base sequence of the primer λ10 is shown by SEQ ID NO:10 in Sequence Listing. Twenty-five microliters of a reaction mixture having a similar composition to that shown above and containing 2.5 ng of λ-DNA, 10 pmol of the primer λ1 and the primer λ10, respectively, and 3.7 units of DNA polymerase was prepared. The reaction mixture was reacted in 5 cycles under the same reaction conditions as those described above, and 5 μl of the reaction mixture was subjected to agarose gel electrophoresis and stained with ethidium bromide.

[1] = test system: gapped duplex plasmid (pUC118 vector); assay: Accuracy of DNA synthesis reaction (white colony formation); settings: 0.5 units DNA polymerase, 70° C. for 10 minutes
Description: The accuracy of DNA synthesis reaction by DNA polymerases was examined using a pUC118 vector (manufactured by Takara Shuzo Co., Ltd.), partially made single stranded (gapped duplex plasmid, as a template. The single stranded pUC118 vector was prepared by the method described in Molecular Cloning: A Laboratory Manual, 2nd ed., 4.44-4.48, published by Cold Spring Harbor Laboratory in 1989, edited by T. Maniatis et al., using a helper phage M13KO7 (manufactured by Takara Shuzo Co., Ltd.) with Escherichia coli MV1184 (manufactured by Takara Shuzo Co., Ltd.) as a host. The double stranded DNA was prepared by digesting the pUC118 vector with PvuII (manufactured by Takara Shuzo Co., Ltd.), subjecting the digested vector to agarose gel electrophoresis, and recovering a DNA fragment of about 2.8 kbp.
One microgram of the above single stranded DNA and 2 μg of the double stranded DNA were mixed to make 180 μl of a mixture with sterile distilled water, and the solution was then incubated at 70° C. for 10 minutes. Thereafter, twenty microliters of 20×SSC was added to the resulting mixture, and the mixture was further kept standing at 60° C. for 10 minutes. The DNA was recovered by subjecting to ethanol precipitation. […] The white or blue colonies formed on the plate were counted, and the formation rate of white colonies which were resulted from a DNA synthesis error was calculated.

[2] = primer λ1 and primer λ10, 5 cycles

Substance | primer extension activity (M13-HT Primer; M13-HT Primer, 75° C., 1-4 min, compared with Pfu and Taq DNA polymerases) | inhibition of primer extension by activated DNA as competitor substrate (M13-HT Primer) | length of DNA fragment amplified by PCR (λ-DNA; [2]) | white colony formation rate (DNA synthesis error) [1] [%] | length of DNA fragment amplified by PCR (λ-DNA; primer λ1 and primer λ11, 30 cycles, enzyme used alone)
DNA Polymerase of the Present Invention: complex of first (ORF3, SEQ ID NO:2) and second (ORF4, SEQ ID NO:4) DNA polymerase-constituting proteins from Pyrococcus furiosus | superior primer extension activity | unlikely to be inhibited; also recorded: inhibited at a low level | about 15 kbp | 1.61 | –
Taq DNA Polymerase: Taq DNA polymerase derived from Thermus aquaticus (TaKaRa Taq, manufactured by Takara Shuzo Co., Ltd.) [reference compound] | – | markedly inhibited; also recorded: strongly inhibited | no specific amplification was observed | 3.18 | not found
